Reference: patent US20140128352A1, “COMPOUNDS AND METHODS FOR MODULATING MITOCHONDRIAL METABOLISM AND REACTIVE OXYGEN SPECIES PRODUCTION” (Buck Institute for Research on Aging, priority 2012, published 2014)
“Also recorded” adds a separate entry of the source.

Experiments:
[1] = target: T1, site IIIQo (Rattus norvegicus, UniProt P00159+P20788); assay: Retest of IIIQo ROS production (expanded microplate panel); format: biochemical
T1 construct: freshly isolated muscle mitochondria were assayed; from tissue; host or cells: rat skeletal muscle mitochondria (Wistar, Harlan Laboratories)
Experimental: Compounds identified as site-selective hits as well as structural analogs were re-sourced from ChemBridge and dissolved in DMSO as 80 mM stocks. Master Titration Plates were prepared manually by serially diluting 80 mM compound stocks between 0.08 and 80 mM on 96-well microplates. Four compounds were titrated in duplicate on each plate. Additional DMSO controls were interspersed across these plates to serve as local normalization controls during analysis since two-way median polishing was not appropriate. Just prior to use, compounds were diluted 100-fold with standard buffer (10X). The same known inhibitor positive controls were included on each plate as during high-throughput screening. The five core ROS assays and single ΔΨm assay were carried out as in the initial high-throughput screen. In addition, several assays were included to help validate the specificity of the compounds for a given site of production. […] The use of different substrates was designed to reveal compounds that disrupt mitochondrial function in a substrate specific manner. […] Most frequently, these changes involved the use of different substrates to supply electrons from an alternative entry point in the chain. If a site of ROS production is being targeted selectively by a compound, then in many cases the supply of electrons should not influence the effectiveness of this compound at suppressing ROS production. […] The fluorescence values in each well were scaled in relation to the intra-plate DMSO and known inhibitor controls as in the high-throughput screen except that median values for local interspersed DMSO wells (3-6 wells) were used rather than just the 8 DMSO wells in columns 1 and 12. This normalization was applied in place of the two-way median polish used during high-throughput screening to minimize row and column effects. […] At this stage, strong candidates were not necessarily excluded from further testing if subtle off-target effects were observed (e.g. loss of specificity or signs of general inhibition at the highest concentrations). Rather, these candidates were often pursued for more detailed mechanistic studies with the expectation that subsequent structure activity analysis would provide insight into which structurally related compounds would provide the optimal specificity for a given site of production.

[2] = test system: site IQ; assay: Retest of IQ ROS production (expanded microplate panel / cuvette); format: biochemical, rat; details: for effect on IQ ROS with subsaturating substrate: subsaturating (0.5 mM) succinate
Experimental: Compounds identified as site-selective hits as well as structural analogs were re-sourced from ChemBridge and dissolved in DMSO as 80 mM stocks. Master Titration Plates were prepared manually by serially diluting 80 mM compound stocks between 0.08 and 80 mM on 96-well microplates. Four compounds were titrated in duplicate on each plate. Additional DMSO controls were interspersed across these plates to serve as local normalization controls during analysis since two-way median polishing was not appropriate. Just prior to use, compounds were diluted 100-fold with standard buffer (10X). The same known inhibitor positive controls were included on each plate as during high-throughput screening.
The five core ROS assays and single ΔΨm assay were carried out as in the initial high-throughput screen. In addition, several assays were included to help validate the specificity of the compounds for a given site of production. All compounds were titrated against separate assays targeting IQ ROS and IIIQo ROS using subsaturating (0.5 mM final) succinate. […] Specifically, ΔΨm was monitored separately with 5 mM succinate (in the presence of 4 μM rotenone) in addition to glutamate and malate as before. The use of different substrates was designed to reveal compounds that disrupt mitochondrial function in a substrate specific manner.
Most frequently, these changes involved the use of different substrates to supply electrons from an alternative entry point in the chain. If a site of ROS production is being targeted selectively by a compound, then in many cases the supply of electrons should not influence the effectiveness of this compound at suppressing ROS production. […] Alternative conditions are listed below: • 1) IQ ROS: 5 mM succinate with 1 mM glutamate • 2) IF ROS: 5 mM malate only as substrate (in the presence of 4 μM rotenone) • 3) IIIQo ROS: 5 mM succinate (in the presence of 3 mM malonate, 4 uM rotenone, and 2.5 μM antimycin A) • 4) IIIQo ROS: 25 mM glycerol phosphate (in the presence of 1 mM malonate, 4 μM rotenone, and 2.5 μM antimycin A) • 5) SDH: 0.5 mM succinate (in the presence of 4 uM rotenone, 2.5 uM antimycin A, and 2 μM myxothiazol) • 6) GPDH: Vary the concentration of glycerol phosphate in the presence or absence of 250 nM free calcium to allosterically activate GPDH (all in the presence of 4 μM rotenone, 2.5 uM antimycin A, 1 mM malonate, and 2 μM myxothiazol) • 7) ΔΨm: Vary the concentration of glycerol phosphate in the presence or absence of 250 nM free calcium to allosterically activate GPDH and in the presence or absence of 80 ng/mL nigericin (all in the presence of 4 μM rotenone)
The fluorescence values in each well were scaled in relation to the intra-plate DMSO and known inhibitor controls as in the high-throughput screen except that median values for local interspersed DMSO wells (3-6 wells) were used rather than just the 8 DMSO wells in columns 1 and 12. This normalization was applied in place of the two-way median polish used during high-throughput screening to minimize row and column effects. […] At this stage, strong candidates were not necessarily excluded from further testing if subtle off-target effects were observed (e.g. loss of specificity or signs of general inhibition at the highest concentrations). Rather, these candidates were often pursued for more detailed mechanistic studies with the expectation that subsequent structure activity analysis would provide insight into which structurally related compounds would provide the optimal specificity for a given site of production.
Candidate compounds that remained site-selective following robotics assisted retesting were subsequently tested for effects on ROS production and ΔΨm with a Varian Cary Eclipse fluorimeter (excitation 550 nm, emission at 590 nm). This experimental format allows kinetic measurements of ROS production and ΔΨm with more accurate temperature control, sample stirring, and background correction. […]

inhibition at 8 µM ([1]; 8 μM, independent of substrate concentration) [%] | Structure (SMILES) | effect on IIIQo ROS [1] | effect on IQ ROS with subsaturating substrate ([2]; retest) | effects on other major sites of ROS production ([2]; 2.5 uM) | effect on IQ ROS with saturating substrate ([2]; retest, saturating substrate)
60 | COc1ccc(Cl)cc1N(Cc1ccccc1)Cc1ccccc1 [Compound 34] | selectively lowers ROS production from site IIIQo independent of substrate concentration | consistently increased IQ ROS but only with subsaturating substrate | – | –
– | O=[N+]([O-])c1ccc(Oc2ccc(S(=O)(=O)NC3CCCCC3)cc2)cc1 [Compound 4] | – | – | without discernible effects on any other major sites within mitochondria | –
– | COc1cc(CN(CCN(C)C)Cc2ccccc2)cc(OC)c1 [Compound 31] | – | stronger off-target effects on IQ ROS when driven by low concentration succinate | – | –
– | O=C(O)C1CCCCC1C(=O)NC1CCCCC1 (centres unmarked) [Compound 19] | unaffected until the highest concentration tested (80 μM) | minimal effects on IQ ROS production driven with subsaturating substrate until 25 μM | – | unaffected until the highest concentration tested (80 μM)
– | O=C(O)CSc1cccc(C(=O)Nc2ccc(Br)cc2)c1 [Compound 47] | off-target effect on site IIIQo ROS | – | – | –
– | CC1=CC(C)(C)N(Cc2ccc([N+](=O)[O-])cc2)c2ccccc21 [Compound 37] | lowers ROS from site IIIQo independent of substrate concentration | decreased IQ ROS with low substrate; also recorded: lowers site IQ ROS with subsaturating succinate | – | –
